Article PMC7048748, “Anxiolytic Drug FGIN-1-27 Ameliorates Autoimmunity by Metabolic Reprogramming of Pathogenic Th17 Cells” (Scientific Reports, 2020)

Columns and labels:
Th17 responses = test system: Th17 responses; set-up: method as in PMID 19498172; conditions: activation of the AAR; cited from earlier work
Th17 cells = experiment: Rescue of IL-17 production by NAC pre-treatment; type: cell-based, mouse; conditions: NAC 1 µM pre-treatment, 10 µM FGIN-1-27
Procedure: Figure 5 FGIN-1-27 induces amino acid starvation response (AAR). (a) MA-plot showing shrunken log2 fold-changes of detected genes between the DMSO and FGIN-1-27 RNA-seq samples, ranked by average normalized count. Red dots indicate differentially expressed genes at adjusted p-value <0.05. (b) Transcript levels for the indicated genes after 24 hours of treatment with DMSO or FGIN-1-27 quantified by qPCR. The error bars represent SD. (c) Western blot analysis for phosphorylated eIF2α and ATF4 24 hours after treatment with DMSO or FGIN-1-27 (5 and 10 µM). Data are representative of 3 independent experiments. (d) Amino acids in Th17 cells measured 72 hours after treatment with FGIN-1-27. The error bars represent SD. (e) ROS was measured using cell permeant reagent 2′,7′ –dichlorofluorescin diacetate (DCFDA) at 24 hours following treatment with FGIN-1-27. Filled grey histogram-DMSO, dotted line-FGIN-1-27 (10 µM) and dashed line indicates FGIN-1-27 (5 µM). (f) Dose response plot showing effect of FGIN-1-27 on intracellular IL-17 after pre-treatment with NAC (1 µM). […]
Increased amino acid synthesis and transport is characteristic of the amino acid starvation response (AAR)[20]. […] Induction of ATF4 can be an indication of oxidative stress and we measured reactive oxygen species (ROS) using the cell permeant reagent 2′,7′ –dichlorofluorescin diacetate (DCFDA).

Compound | Th17 responses (Th17 responses) | rescue of defective IL-17 production (Th17 cells)
O=C(CC1NCCCC1O)Cn1cnc2cc(Br)c(Cl)cc2c1=O (centres unmarked) [halofuginone] | down-regulate Th17 responses | 
CC(=O)N[C@@H](CS)C(=O)O [NAC, N-acetyl cysteine] |  | 14%
